Measured values taken from patent US12280048B2, “Amorphous solid dispersions” (priority 2016, dated 2025).
≈ marks a conversion by molar mass, not a printed value.

Legend:
[1] = chemical stability of ITI-007 by HPLC over the seven-day study; type: physicochemical; conditions: 7 days at 40° C./75% RH, normalized to content before the study
[2] = preliminary screen of dispersions by XRPD and appearance; type: physicochemical; conditions: XRPD, as generated by lyophilization; ITI-007 free base/excipient
Experimental: X-ray powder diffraction (XRPD): The X-ray powder diffraction studies are performed using a PANalytical X'Pert PRO MPD diffractometer using an incident beam of Cu radiation produced using an Optix long, fine-focus source. An elliptically graded multilayer mirror is used to focus Cu Kα X-ray radiation through the specimen and onto the detector. Prior to analysis, a silicon specimen is analyzed to verify the observed position of the Si (111) peak (consistent with the NIST-certified position, NIST SM 640e). A specimen of the sample is sandwiched between 3-micron thick films and analyzed in transmission geometry. A beam-stop, short antiscatter extension, and antiscatter knife edge is used to minimize the background generated by the air. Soller slits for the incident and diffracted beams are used to minimize broadening from axial divergence. Diffraction patterns are collected using a scanning position-sensitive detector (X'Celerator) located 240 mm from the specimen.

[3] = solubility of ITI-007 free base in solvents; type: physicochemical
[4] = tested on: muscarinic receptors; conditions: cited from earlier work
[5] = mDSC glass transition of dispersions; type: physicochemical; conditions: single glass transition above 75° C., Yes/No
[6] = target: T1, 5-HT2C receptors (Homo sapiens, UniProt P28335); conditions: cited from earlier work
T1 sequence (P28335 33-458): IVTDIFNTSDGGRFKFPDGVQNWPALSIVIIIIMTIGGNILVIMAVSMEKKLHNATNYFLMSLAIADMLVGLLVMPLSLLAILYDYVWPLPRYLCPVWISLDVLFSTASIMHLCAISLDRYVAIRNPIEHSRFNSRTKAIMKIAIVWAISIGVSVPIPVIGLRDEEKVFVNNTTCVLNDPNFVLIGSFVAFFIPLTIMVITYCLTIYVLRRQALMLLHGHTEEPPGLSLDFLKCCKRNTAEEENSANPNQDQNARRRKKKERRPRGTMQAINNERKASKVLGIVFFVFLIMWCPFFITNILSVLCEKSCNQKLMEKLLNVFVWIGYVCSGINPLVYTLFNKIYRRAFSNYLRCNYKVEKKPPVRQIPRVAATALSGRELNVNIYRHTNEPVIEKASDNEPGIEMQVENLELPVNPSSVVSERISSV

[7] = target: H1 histaminergic receptors (Homo sapiens, UniProt P35367); conditions: cited from earlier work
[8] = cited from earlier work
[9] = salt of U.S. Pat. No. 7,183,282

Sequence of H1 histaminergic receptors (P35367 whole entry): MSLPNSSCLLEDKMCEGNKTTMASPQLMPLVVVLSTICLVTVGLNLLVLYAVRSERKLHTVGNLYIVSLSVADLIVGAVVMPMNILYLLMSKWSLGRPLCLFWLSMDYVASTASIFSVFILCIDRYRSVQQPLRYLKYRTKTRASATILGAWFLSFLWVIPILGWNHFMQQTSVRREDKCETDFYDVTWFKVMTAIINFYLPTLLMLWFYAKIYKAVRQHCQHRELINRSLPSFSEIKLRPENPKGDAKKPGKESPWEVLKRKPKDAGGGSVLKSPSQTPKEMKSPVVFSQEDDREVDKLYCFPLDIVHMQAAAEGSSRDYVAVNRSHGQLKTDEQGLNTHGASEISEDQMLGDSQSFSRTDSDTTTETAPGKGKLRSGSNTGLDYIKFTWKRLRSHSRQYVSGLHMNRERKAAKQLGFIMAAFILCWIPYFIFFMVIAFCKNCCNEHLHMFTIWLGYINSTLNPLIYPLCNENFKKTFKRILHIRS

Compound	% ITI-007 change by HPLC [1] [%]	X-ray Amorphous Solids? [2]	solubility ([3]; 2,2,2-trifluoroethanol (TFE), organic solvent or mixture) [mg/mL]	solubility ([3]; acetone, organic solvent or mixture) [mg/mL]	solubility ([3]; dioxane, organic solvent or mixture) [mg/mL]	solubility ([3]; ethanol, organic solvent or mixture) [mg/mL]	solubility ([3]; methanol, organic solvent or mixture) [mg/mL]	stability in solution ([3]; solutions in TFE)	solubility ([3]; tert-butanol/water mixtures, aqueous with cosolvent or surfactant or cyclodextrin) [mg/mL]	binding [4]	Tg > 75° C. [5]	binding [6]	binding [7]	solubility in water ([8]; free base form)	hygroscopicity [8, 9]	stability [8, 9]
CN1CCN2c3c(cccc31)[C@@H]1CN(CCCC(=O)c3ccc(F)cc3)CC[C@@H]12 [ITI-007, 1-(4-fluoro-phenyl)-4-((6bR,10aS)-3-methyl-2,3,6b,9,10,10a-hexahydro-1H,7H-pyrido[3′,4′:4,5]pyrrolo[1,2,3-de]quinoxalin-8-yl)-butan-1-one]	−5.97	No	> 50	> 50	> 50	> 50	> 50	rapidly discolor due to decomposition of the active	5 to 50 (≈ 12.7 to 127 mM)	negligible binding	No	negligible binding	negligible binding	poor solubility in water		
CN1CCN2c3c(cccc31)C1CN(CCCC(=O)c3ccc(F)cc3)CCC12.Cl (stereo not shown) [hydrochloride salt form of ITI-007]															hygroscopic	poor stability
